Tests used:
[1] = biological target: Substance-P receptor (Cavia porcellus) (UniProt P30547); assay: Antagonist activity against tachykinin receptor 1 activity in guinea pig ileum in vitro; assay type: functional, tissue-based
[2] = Effective bladder capacity increasing effect of compound (0.3 mg/kg i.v.) expressed as the ratio of increase in effective bladder capacity compared to saline treated animals in vivo; assay type: functional, Cavia porcellus

Chain of Substance-P receptor (Cavia porcellus) (P30547 whole entry): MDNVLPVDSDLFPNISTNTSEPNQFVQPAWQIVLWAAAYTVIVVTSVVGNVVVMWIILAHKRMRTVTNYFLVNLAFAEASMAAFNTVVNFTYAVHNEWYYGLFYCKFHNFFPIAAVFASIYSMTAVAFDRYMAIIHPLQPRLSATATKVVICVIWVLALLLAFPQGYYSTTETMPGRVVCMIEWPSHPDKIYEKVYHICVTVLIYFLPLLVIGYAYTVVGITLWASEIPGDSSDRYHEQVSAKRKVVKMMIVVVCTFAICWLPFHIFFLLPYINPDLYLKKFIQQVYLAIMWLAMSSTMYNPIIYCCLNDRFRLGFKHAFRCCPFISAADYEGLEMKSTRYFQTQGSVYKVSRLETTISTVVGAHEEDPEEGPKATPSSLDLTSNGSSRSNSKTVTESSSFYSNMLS

Row | Kb [1] [nM] | Structure (SMILES) | Effect [2] [%]
1 | 0.27 | Cc1ccc(-c2c3n(c(=O)c4ncccc24)CC[C@@H](C)CN(Cc2cc(C(F)(F)F)cc(C(F)(F)F)c2)C3=O)cc1 | 12
2 | 0.166 | Cc1ccccc1-c1nc(N2CCC(N3CCCC3)CC2)nc2c1C(=O)N(Cc1cc(C(F)(F)F)cc(C(F)(F)F)c1)CCCO2 | 33.4
3 | 0.339 | Cc1ccccc1-c1nc(N2CCC(N3CCCC3)CC2)cc2c1C(=O)N(Cc1cc(C(F)(F)F)cc(C(F)(F)F)c1)CCCO2 | 3.97
4 | – | Cc1ccccc1-c1cc(N2CCC(N3CCCC3)CC2)nc2c1C(=O)N(Cc1cc(C(F)(F)F)cc(C(F)(F)F)c1)CCCO2 | 24.2

Reference: ChEMBL document CHEMBL1142020, “2-substituted-4-aryl-6,7,8,9-tetrahydro-5H-pyrimido[4,5-b][1,5]oxazocin-5-one as a structurally new NK1 antagonist” (2005)
